Consider 2 compounds from US10894837B2, “MMP9 inhibitors and uses thereof in the prevention or treatment of a depigmenting disorder” (UNIVERSITE DE BORDEAUX, priority 2016, dated 2021).

Holding throughout (format): cell-based
Assay [1] concerns Reconstructed human epidermis containing melanocytes. As to the kind of experiment: TNFα and IFNγ-induced melanocyte detachment in reconstructed human epidermis, immunofluorescence of melan-A and E-cadherin. The settings on record: 24 h, 20 ng/ml TNFα and IFNγ, 10 μM inhibitor (FIG. 5). On the procedure:
Reconstructed human epidermis containing melanocytes were stimulated 24 h with or without 20 ng/ml of TNFα and IFNγ in the presence or absence of 10 μM of MMP9 inhibitor ab142180 or SB-CT. Immunofluorescence microscopy analysis of melan-A (red) and E-cadherin (green) expression, Magnification 400×. White arrows show melanocytes that are detached from the basal layer of the epidermis.
(§1) As discussed above, TNFα and IFNγ induce MMP9 gene expression in melanocyte. Inventors used two commercially available synthetic MMP9 inhibitors, SB3CT (a […]) and a selective MMP9 inhibitor (ab142180), to assess whether such inhibition could inhibit TNFα and IFNγ effects on depigmentation. In vitro reconstructed human epidermis containing melanocytes were stimulated with these two cytokines in the presence or absence of the two different MMP9 inhibitors for 24 h (FIG. 5). The combination of TNFα and IFNγ induced melanocyte detachment and E-cadherin inhibition.
Pigmented epidermis (RHEm) are reconstructed from normal human keratinocytes (NHEK) and from normal human melanocytes (NHEM), previously isolated from preputial samples. […]
Then reading with a fluorescence microscope for the analysis of melanocytes detachment.

In assay [2] the test system is MMP9 gene expression. Nature of the assay: Real-time PCR analysis of MMP9 gene expression in reconstructed human pigmented epidermis treated with TNFα and IFNγ. The settings on record: 24 h, 10 ng/ml TNFα and IFNγ, 1 μM and 10 μM inhibitor, real-time PCR (FIG. 13A). On the procedure:
(§2) Reconstructed human pigmented epidermis were treated 24 h with or without 10 ng/ml of TNFα and IFNγ in the presence or absence of 1 μM and 10 μM of MMP9 inhibitors ab142180 or SB-CT. (A) Real-time PCR analysis of MMP9 gene expression. Results are expressed as a fold increase above control culture. GAPDH was used as a housekeeping gene. (B) Measurement of MMP9 levels by ELISA in cell-free supernatants.
as §1
After 10 days of reconstruction (D10), reconstructed human pigmented epidermis (RHEm) are placed in 6 wells plate (NUNC reference 140675) in 2 ml of culture medium without hydrocortisone to which 10 ng/ml of interferon (IFN)-γ (R&D systems) and 10 ng/ml of “tumor necrosis factor (TNF)-α” (R&D systems) are added. A control condition without cytokines addition is performed. […]
A general note: Real-time PCR tracks product formation cycle by cycle.

Assay [3] relates to MMP9. As to the kind of experiment: MMP9 levels by ELISA in cell-free supernatants of reconstructed human pigmented epidermis treated with TNFα and IFNγ. The settings on record: 24 h, 10 ng/ml TNFα and IFNγ, 1 μM and 10 μM inhibitor, ELISA in cell-free supernatants (FIG. 13B). On the procedure:
as §2, §1
After 10 days of reconstruction (D10), reconstructed human pigmented epidermis (RHEm) are placed in 6 wells plate (NUNC reference 140675) in 2 ml of culture medium without hydrocortisone to which 10 ng/ml of interferon (IFN)-γ (R&D systems) and 10 ng/ml of “tumor necrosis factor (TNF)-α” (R&D systems) are added. A control condition without cytokines addition is performed. Each experimental condition is performed in duplicate or triplicate.
A general note: In an ELISA, binding on a coated surface is turned into a signal by an enzyme label.

As for `CCN(CC)Cc1cc(C)c(N(Cc2ccccc2)S(=O)(=O)c2ccc(OC)cc2)c(C(=O)NO)c1` [ab142180, 2-(N-benzyl-4-methoxyphenylsulfonamido)-5-((diethylamino)methyl)-N-hydroxy-3-methylbenzamide], in assay [1], the “TNFα and IFNγ-induced melanocyte detachment and E-cadherin inhibition” value is recorded as “strongly inhibited”. In addition, in assay [2], the “MMP9 expression induced by the combination of IFNγ and TNFα, gene level” value is “reduced”. In addition, the “MMP9 expression induced by the combination of IFNγ and TNFα, protein level (MMP9 production)” value in assay [3] is “reduced”.
For `O=S(=O)(CC1CS1)c1ccc(Oc2ccccc2)cc1` (stereo not shown) [SB3CT, 2-[[(4-phenoxyphenyl)sulfonyl]methyl]-Thiirane], the “TNFα and IFNγ-induced melanocyte detachment and E-cadherin inhibition” value in assay [1] is “strongly inhibited”. Besides, in assay [2], the “MMP9 expression induced by the combination of IFNγ and TNFα, gene level” value is reported as “reduced”. In addition, the results for the “MMP9 expression induced by the combination of IFNγ and TNFα, protein level (MMP9 production)” value in assay [3] and in assay [3] (listed as SB-CT) were “reduced” and “reduces”, respectively.
